Tests used:
Assay type in all cases: biochemical
Conditions in all cases: method of Davies et al.
[1] = biological target: stress-activated protein kinase 2a (SAPK-2A or p38) (Homo sapiens, UniProt Q16539); experiment: Panel of protein kinases: SAPK-2A
Description: (§1) The compounds of the present invention were screened against a large panel of protein kinase to determine inhibition activity for CDK as against a variety of protein kinases. The assay was conducted using methods and materials described by Davies, S et al. Specificity and Mechanism of Action of Some Commonly Used Protein Kinase Inhibitors, Biochem J. 351, 95–105 (2000), the contents of which are herein incorporated by reference. The compounds were screened against a panel of protein kinases which include AMP-activiated protein kinase (AMPK), checkpoint kinase (CHK1), casein kinases 1 and 2 (CK1 and CK2), cytoplasmic tyrosine kinase (CSK), dual serine/threonine/tyrosine kinase (DYRK1A), glycogen synthase kinase 3 (GSK3B), c-Jun N-terminal kinase (JNK), lymphocyte kinase (LCK), mitogen-activated protein kinases 2, K-1a, K2 (MAPK2, MAPKAP-K1a, and MAPKAP-K2), MAPK kinase (MKK1, also called MEK), mitogen and stress-activated protein kinase 1 (MSK1), never-in-mitosis kinase 6 (NEK6), p70 ribosomal protein S6 kinase (P70s6K1), 3-phosphoinositide-dependent protein kinase 1 (PDK1), phosphorylase kinase (PHK), protein kinase A (PKA), protein kinase B (PKB, also called Akt), protein kinase C (PKCa), p38-regulated/activated kinase (PRAK), Rho-dependent protein kinase (ROCK-II), stress-activated protein kinase 2a, 2b, 3 and 4 (SAPK-2A or p38, SAPK-2b or p38β2, SAPK3 or p38γ, SAPK4 or p38δ, respectively), and serum- and glucocorticoid-induced kinase (SGK). Compound activity was grouped into categories of weak (<50%), moderate (50–75%) and strong inhibition (>75%).

[2] = biological target: mitogen and stress-activated protein kinase 1 (MSK1) (Homo sapiens, UniProt O75582); experiment: Panel of protein kinases: MSK1
Sequence of mitogen and stress-activated protein kinase 1 (MSK1) (O75582 whole entry, species assumed): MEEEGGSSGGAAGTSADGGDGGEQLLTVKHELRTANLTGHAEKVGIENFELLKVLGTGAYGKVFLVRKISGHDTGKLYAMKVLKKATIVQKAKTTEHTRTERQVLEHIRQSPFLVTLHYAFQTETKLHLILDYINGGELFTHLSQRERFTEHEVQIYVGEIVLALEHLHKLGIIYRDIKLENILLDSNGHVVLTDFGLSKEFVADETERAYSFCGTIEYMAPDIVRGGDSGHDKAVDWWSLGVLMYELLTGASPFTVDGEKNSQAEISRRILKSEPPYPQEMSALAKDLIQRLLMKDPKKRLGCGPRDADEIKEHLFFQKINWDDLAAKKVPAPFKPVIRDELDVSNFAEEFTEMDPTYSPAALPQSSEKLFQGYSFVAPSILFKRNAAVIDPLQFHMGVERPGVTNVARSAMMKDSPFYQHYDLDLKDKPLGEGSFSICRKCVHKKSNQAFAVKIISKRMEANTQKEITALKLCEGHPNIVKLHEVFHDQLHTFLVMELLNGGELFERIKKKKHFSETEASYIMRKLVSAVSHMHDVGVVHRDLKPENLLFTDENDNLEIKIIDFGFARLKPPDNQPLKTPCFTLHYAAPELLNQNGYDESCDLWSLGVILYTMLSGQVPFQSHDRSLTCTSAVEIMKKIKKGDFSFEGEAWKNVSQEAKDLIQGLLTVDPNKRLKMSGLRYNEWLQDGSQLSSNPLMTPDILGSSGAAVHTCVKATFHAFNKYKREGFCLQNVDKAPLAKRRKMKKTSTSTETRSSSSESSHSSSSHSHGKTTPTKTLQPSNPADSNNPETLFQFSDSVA
Description: as §1

[3] = biological target: T1, 3-phosphoinositide-dependent protein kinase 1 (PDK1) (Homo sapiens, UniProt O15530); experiment: Panel of protein kinases: PDK1
T1 sequence (O15530 1-556): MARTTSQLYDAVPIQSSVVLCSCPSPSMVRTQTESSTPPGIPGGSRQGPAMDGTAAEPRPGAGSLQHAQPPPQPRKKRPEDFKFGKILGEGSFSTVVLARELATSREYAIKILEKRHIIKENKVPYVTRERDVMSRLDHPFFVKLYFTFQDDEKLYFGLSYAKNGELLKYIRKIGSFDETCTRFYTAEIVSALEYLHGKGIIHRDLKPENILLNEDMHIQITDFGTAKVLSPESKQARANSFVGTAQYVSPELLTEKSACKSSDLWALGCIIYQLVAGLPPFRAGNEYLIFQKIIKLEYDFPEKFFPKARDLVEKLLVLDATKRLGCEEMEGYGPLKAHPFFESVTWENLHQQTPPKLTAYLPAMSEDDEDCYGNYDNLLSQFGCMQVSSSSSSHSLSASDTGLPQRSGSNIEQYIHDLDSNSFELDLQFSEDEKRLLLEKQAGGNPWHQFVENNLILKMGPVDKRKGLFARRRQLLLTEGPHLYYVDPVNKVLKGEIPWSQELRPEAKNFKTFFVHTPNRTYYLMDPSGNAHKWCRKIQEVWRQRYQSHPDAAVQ
Description: as §1

protein kinase A (PKA) = protein kinase A (PKA) (Bos taurus, UniProt P00517); experiment: Panel of protein kinases: PKA
Description: as §1

[4] = biological target: T2, serum- and glucocorticoid-induced kinase (SGK) (Homo sapiens, UniProt O00141, S422D); experiment: Panel of protein kinases: SGK
T2 sequence (O00141 61-431 S422D limits assumed): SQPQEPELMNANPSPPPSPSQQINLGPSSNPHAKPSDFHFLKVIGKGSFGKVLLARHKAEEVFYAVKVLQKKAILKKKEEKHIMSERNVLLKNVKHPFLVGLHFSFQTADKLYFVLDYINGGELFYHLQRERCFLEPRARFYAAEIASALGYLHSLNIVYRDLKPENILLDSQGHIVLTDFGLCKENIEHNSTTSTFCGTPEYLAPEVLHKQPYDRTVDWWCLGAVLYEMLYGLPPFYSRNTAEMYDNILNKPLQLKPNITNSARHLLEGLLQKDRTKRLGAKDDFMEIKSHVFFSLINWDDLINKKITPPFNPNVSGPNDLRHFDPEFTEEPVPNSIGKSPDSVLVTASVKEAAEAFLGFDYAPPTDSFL
Description: as §1

casein kinase 1 (CK1) = experiment: Panel of protein kinases: CK1
Description: as §1

[5] = biological target: dual serine/threonine/tyrosine kinase (DYRK1A) (Homo sapiens, UniProt Q13627); experiment: Panel of protein kinases: DYRK1A
Description: as §1

[6] = tested on: AMP-activiated protein kinase (AMPK); experiment: Panel of protein kinases: AMPK
Description: as §1

casein kinase 2 (CK2) = experiment: Panel of protein kinases: CK2
Description: as §1

[7] = biological target: phosphorylase kinase (PHK) (Oryctolagus cuniculus, UniProt P00518); experiment: Panel of protein kinases: PHK
Description: as §1

[8] = biological target: T3, p38-regulated/activated kinase (PRAK) (Homo sapiens, UniProt Q8IW41); experiment: Panel of protein kinases: PRAK
T3 sequence (Q8IW41 1-473): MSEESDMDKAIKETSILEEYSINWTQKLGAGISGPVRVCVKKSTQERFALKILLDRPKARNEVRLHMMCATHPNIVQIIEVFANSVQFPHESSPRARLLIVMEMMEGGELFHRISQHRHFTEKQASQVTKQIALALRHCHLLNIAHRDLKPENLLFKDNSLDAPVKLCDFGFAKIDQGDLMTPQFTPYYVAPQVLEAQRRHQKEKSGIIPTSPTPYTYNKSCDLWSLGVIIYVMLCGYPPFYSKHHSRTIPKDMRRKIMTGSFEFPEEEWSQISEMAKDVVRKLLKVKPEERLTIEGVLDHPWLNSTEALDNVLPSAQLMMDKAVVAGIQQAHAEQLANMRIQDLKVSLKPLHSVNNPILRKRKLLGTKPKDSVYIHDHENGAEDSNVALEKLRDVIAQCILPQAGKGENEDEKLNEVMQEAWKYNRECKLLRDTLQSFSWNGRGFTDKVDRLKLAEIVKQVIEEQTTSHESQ
Description: as §1

CDK2/A = CDK2/A (Homo sapiens, UniProt P24941); experiment: Panel of protein kinases: CDK2/A
Description: as §1

[9] = biological target: c-Jun N-terminal kinase (JNK) (Homo sapiens, UniProt P45983); experiment: Panel of protein kinases: JNK
Sequence of c-Jun N-terminal kinase (JNK) (P45983 whole entry): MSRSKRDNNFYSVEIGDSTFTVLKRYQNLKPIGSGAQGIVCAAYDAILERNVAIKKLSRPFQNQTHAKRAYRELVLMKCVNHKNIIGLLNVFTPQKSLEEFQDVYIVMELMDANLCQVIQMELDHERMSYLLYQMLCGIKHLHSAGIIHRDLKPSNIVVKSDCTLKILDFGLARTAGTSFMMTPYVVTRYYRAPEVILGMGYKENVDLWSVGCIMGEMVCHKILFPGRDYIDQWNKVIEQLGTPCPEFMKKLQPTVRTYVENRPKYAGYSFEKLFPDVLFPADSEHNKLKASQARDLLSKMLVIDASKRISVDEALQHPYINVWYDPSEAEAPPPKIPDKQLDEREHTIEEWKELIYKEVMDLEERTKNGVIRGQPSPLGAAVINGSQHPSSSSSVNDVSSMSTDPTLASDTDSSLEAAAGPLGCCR
Description: as §1

[10] = biological target: stress-activated protein kinase 2b (SAPK-2b or p38β2) (Homo sapiens, UniProt Q15759); experiment: Panel of protein kinases: SAPK-2b
Sequence of stress-activated protein kinase 2b (SAPK-2b or p38β2) (Q15759 whole entry): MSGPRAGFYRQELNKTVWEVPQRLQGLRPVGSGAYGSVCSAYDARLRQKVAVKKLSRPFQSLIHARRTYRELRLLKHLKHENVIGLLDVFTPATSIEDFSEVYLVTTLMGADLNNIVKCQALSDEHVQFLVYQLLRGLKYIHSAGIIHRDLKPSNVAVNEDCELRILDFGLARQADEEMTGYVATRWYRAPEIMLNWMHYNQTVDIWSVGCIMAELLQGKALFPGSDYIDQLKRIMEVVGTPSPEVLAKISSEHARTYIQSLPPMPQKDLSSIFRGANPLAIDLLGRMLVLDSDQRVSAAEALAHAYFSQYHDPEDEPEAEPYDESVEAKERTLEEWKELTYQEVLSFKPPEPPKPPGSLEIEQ
Description: as §1

Sequence of stress-activated protein kinase 2a (SAPK-2A or p38) (Q16539 whole entry, species assumed): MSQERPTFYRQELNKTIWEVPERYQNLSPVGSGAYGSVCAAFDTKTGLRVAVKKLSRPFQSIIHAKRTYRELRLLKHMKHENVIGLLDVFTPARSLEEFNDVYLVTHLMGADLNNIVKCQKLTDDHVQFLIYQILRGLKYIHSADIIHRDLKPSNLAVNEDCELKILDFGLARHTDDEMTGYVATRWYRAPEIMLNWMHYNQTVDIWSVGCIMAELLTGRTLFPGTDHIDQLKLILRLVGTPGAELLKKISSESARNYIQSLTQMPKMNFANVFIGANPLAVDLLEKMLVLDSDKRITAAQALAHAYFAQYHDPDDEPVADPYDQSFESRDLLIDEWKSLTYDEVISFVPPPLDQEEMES

SMILES | Kinase SAPK-2A inhibition [1] | Kinase MSK1 inhibition [2] | Kinase PDK1 inhibition [3] | Kinase PKA inhibition (protein kinase A (PKA)) | Kinase SGK inhibition [4] | Kinase CK1 inhibition (casein kinase 1 (CK1)) | Kinase DYRK1A inhibition [5] | Kinase AMPK inhibition [6] | Kinase CK2 inhibition (casein kinase 2 (CK2)) | Kinase PHK inhibition [7] | Kinase PRAK inhibition [8] | Kinase CDK2/A inhibition (CDK2/A) | Kinase JNK inhibition [9] | Kinase SAPK-2b inhibition [10]
CCNCc1cncc(-c2ccc3[nH]nc(-c4nc5c(SC)cccc5[nH]4)c3c2)c1C [C] | − (Weak inhibition <50%) | − (Weak inhibition <50%) | − (Weak inhibition <50%) | + (Moderate inhibition 50–75%) | − (Weak inhibition <50%) | − (Weak inhibition <50%) | ++ (Strong inhibition >75%) | ++ (Strong inhibition >75%) | − (Weak inhibition <50%) | + (Moderate inhibition 50–75%) | ++ (Strong inhibition >75%) | ++ (Strong inhibition >75%) | − (Weak inhibition <50%) | − (Weak inhibition <50%)
CCNCc1cncc(-c2ccc3[nH]nc(-c4nc5ccccc5[nH]4)c3c2)c1C [A] | − (Weak inhibition <50%) | − (Weak inhibition <50%) | + (Moderate inhibition 50–75%) | ++ (Strong inhibition >75%) | + (Moderate inhibition 50–75%) | − (Weak inhibition <50%) | ++ (Strong inhibition >75%) | ++ (Strong inhibition >75%) | − (Weak inhibition <50%) | ++ (Strong inhibition >75%) | ++ (Strong inhibition >75%) | ++ (Strong inhibition >75%) | − (Weak inhibition <50%) | − (Weak inhibition <50%)
CCNCc1cncc(-c2ccc3[nH]nc(-c4nc5c(C(=O)NC)cccc5[nH]4)c3c2)c1C [B] | − (Weak inhibition <50%) | − (Weak inhibition <50%) | − (Weak inhibition <50%) | ++ (Strong inhibition >75%) | + (Moderate inhibition 50–75%) | − (Weak inhibition <50%) | ++ (Strong inhibition >75%) | ++ (Strong inhibition >75%) | − (Weak inhibition <50%) | + (Moderate inhibition 50–75%) | + (Moderate inhibition 50–75%) | ++ (Strong inhibition >75%) | − (Weak inhibition <50%) | − (Weak inhibition <50%)
CCNCc1cncc(-c2ccc3[nH]nc(-c4nc5c(NC(C)=O)cccc5[nH]4)c3c2)c1C [D] | − (Weak inhibition <50%) | − (Weak inhibition <50%) | − (Weak inhibition <50%) | − (Weak inhibition <50%) | − (Weak inhibition <50%) | − (Weak inhibition <50%) | ++ (Strong inhibition >75%) | ++ (Strong inhibition >75%) | − (Weak inhibition <50%) | − (Weak inhibition <50%) | + (Moderate inhibition 50–75%) | ++ (Strong inhibition >75%) | − (Weak inhibition <50%) | − (Weak inhibition <50%)
CCNCc1cncc(-c2ccc3[nH]nc(-c4nc5cc(F)ccc5[nH]4)c3c2)c1C [Example 2, Ethyl-{5-[3-(5-fluoro-1H-benzoimidazol-2-yl)-1H-indazol-5-yl]-4-methyl-pyridin-3-ylmethyl}-amine] | − (Weak inhibition <50%) | − (Weak inhibition <50%) | − (Weak inhibition <50%) | − (Weak inhibition <50%) | − (Weak inhibition <50%) | – | ++ (Strong inhibition >75%) | – | – | ++ (Strong inhibition >75%) | − (Weak inhibition <50%) | ++ (Strong inhibition >75%) | − (Weak inhibition <50%) | − (Weak inhibition <50%)

Source: patent US7008953B2, “3, 5 Disubstituted indazole compounds, pharmaceutical compositions, and methods for mediating or inhibiting cell proliferation” (Agouron Pharmaceuticals, Inc., priority 2003, dated 2006)
